From patent US9474780B2, “GIP and GLP-1 co-agonist compounds” (Eli Lilly and Company, priority 2015, dated 2016)
“And” between values parts separate entries of the source, which are not always exact repeats. Equal entries are not always repeated. Numbered stars: 1 amine (or outer) side, 2 acyl side, 3 side chain; on linkers, the order of the positions; unused ones are H or OH. Square brackets hold non-standard residues; d marks the D form. Side chains are listed from the residue outwards. Peptide text beside a SMILES is read from it. * marks the point of attachment. C18 diacid = O=C(O)CCCCCCCCCCCCCCCCC(=O)*; γGlu = O=C(O)[C@H](CCC(=O)[*:2])N[*:1]; 1Nal = N[C@@H](Cc1cccc2ccccc12)C(=O)O; AEEA = NCCOCCOCC(=O)O; Aib = CC(C)(N)C(=O)O

Assays:
[1] = system: mouse islets; assay: Mouse islet insulin secretion; format: cell-based; details: read-out: Mouse islet insulin secretion Mean ED50
Experimental: To assess action of compounds of the present invention in a system representing physiological GLP-1R and GIP-R expression levels insulin secretion, compounds are tested for effects on insulin secretion from wild-type rodent islets.
After common bile duct cannulation in male C57B1/6 mice (22-26 g) or male Sprague-Dawley rats (approx. 250 g), the pancreas is distended with Hank's buffer (3 ml for mice or 10 ml for rats, containing 2% BSA and 0.75 mg/ml Clzyme collagenase (VitaCyte). Subsequently, tissues are digested in Hank's buffer at 37° C. for 11-13 minutes (mice) or 14-16 minutes for rat pancreata. Purified islets (Histopaque-1100 gradient [Sigma-Aldrich], […] at 750× gravity) are cultured overnight in RPMI-1640 medium (Invitrogen) containing 10% FBS, 100 U/ml penicillin and 100 μg/ml streptomycin, and preconditioned by starvation in Earle's Balanced Salt Solution (EBSS) supplemented with 0.1% BSA and 2.8 mM glucose. Subsequently, islets are incubated in EBSS (Invitrogen) supplemented with 0.1% BSA, 2.8-11.2 mM glucose and increasing levels of compound (6 batches of 4 islets/condition). GLP-1(7-36)amide (30 nM) is used as a positive control. Insulin is measured over 90 minutes in supernatant using the MSD Insulin Assay (Meso Scale, Gaithersburg, Md.).

[2] = molecular target: T1, human GLP-1R (Homo sapiens, UniProt P43220); assay: Functional hGLP-1R cAMP assay in HEK-293 clonal cells; format: cell-based; details: HEK293; percent of maximal response of hGLP-1(7-36)NH2
T1 construct: expressed in transfected cells; host or cells: 293HEK, Hygromycin-selected; crude plasma membranes
T1 sequence (P43220 24-463): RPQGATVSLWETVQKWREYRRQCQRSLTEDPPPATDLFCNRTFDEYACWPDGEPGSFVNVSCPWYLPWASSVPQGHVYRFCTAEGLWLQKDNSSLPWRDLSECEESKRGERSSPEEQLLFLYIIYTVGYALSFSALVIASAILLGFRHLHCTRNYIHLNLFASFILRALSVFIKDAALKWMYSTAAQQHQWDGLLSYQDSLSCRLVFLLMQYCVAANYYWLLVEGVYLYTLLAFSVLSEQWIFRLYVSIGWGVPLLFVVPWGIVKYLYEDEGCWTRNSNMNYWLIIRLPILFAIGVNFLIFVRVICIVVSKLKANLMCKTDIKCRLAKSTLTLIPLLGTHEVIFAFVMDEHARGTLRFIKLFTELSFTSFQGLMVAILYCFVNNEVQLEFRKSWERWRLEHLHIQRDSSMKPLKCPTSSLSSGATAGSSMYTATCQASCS

[3] = molecular target: T1, human GLP-1R; format: binding; details: for Molar ratio of hGLP-1R/hGIP-R: normalized by factor 4.53 from native GIP and GLP-1 binding; for Absolute ratio of hGLP-1R/hGIP-R: ratio of Ki values
[4] = molecular target: Human GCGR (Homo sapiens, UniProt P47871); assay: Functional hGCGR cAMP assay in HEK-293 clonal cells
Sequence of Human GCGR (P47871 26-477): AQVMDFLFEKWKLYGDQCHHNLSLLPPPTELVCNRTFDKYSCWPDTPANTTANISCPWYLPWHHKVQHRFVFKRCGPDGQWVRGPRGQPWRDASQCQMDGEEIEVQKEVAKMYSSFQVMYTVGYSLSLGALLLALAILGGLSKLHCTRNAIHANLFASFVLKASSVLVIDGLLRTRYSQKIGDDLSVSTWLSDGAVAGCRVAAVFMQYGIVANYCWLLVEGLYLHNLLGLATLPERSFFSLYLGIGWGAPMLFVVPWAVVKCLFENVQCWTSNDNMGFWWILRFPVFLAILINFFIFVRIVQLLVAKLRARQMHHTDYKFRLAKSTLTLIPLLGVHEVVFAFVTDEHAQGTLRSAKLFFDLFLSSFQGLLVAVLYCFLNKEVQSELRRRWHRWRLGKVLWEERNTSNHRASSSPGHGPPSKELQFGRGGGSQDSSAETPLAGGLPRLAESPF

[5] = Pharmacokinetics in cynomolgus monkeys; format: in vivo; details: cynomolgus monkey, plasma, single SC 0.2 mg/kg, male monkeys, n = 2; for AUC(0-inf): read-out: Mean AUC0-inf; for half-life: read-out: Mean T1/2 (converted); for Tmax: read-out: Mean Tmax
Outline: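 Single 0.2 mg/kg dose, intravenous or subcutaneous, in 20 mM citrate buffer pH 7.0; blood sampled from 2 to 312 hours post-dose. Plasma extracted with N-butanol, reconstituted in 30% acetonitrile/0.1% formic acid and quantified by LC/MS on a C5 column with Q-Exactive detection.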

[6] = molecular target: T2, human GIP-R (Homo sapiens, UniProt P48546); assay: Functional hGIP-R cAMP assay in HEK-293 clonal cells; details: HEK293, read-out: Human GIP-R Emax
T2 sequence (P48546 22-466): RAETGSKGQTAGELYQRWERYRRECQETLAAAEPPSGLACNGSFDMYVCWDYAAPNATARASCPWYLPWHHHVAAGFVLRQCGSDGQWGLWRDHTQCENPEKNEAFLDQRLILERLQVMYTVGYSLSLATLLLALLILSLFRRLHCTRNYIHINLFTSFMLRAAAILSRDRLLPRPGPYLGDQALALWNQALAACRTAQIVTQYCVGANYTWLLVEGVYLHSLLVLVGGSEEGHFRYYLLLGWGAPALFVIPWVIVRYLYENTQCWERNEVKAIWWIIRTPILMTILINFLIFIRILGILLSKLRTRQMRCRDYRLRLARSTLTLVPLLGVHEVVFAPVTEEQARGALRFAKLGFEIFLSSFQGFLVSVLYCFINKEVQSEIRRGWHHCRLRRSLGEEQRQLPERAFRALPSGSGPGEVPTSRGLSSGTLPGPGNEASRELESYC

[7] = Weight loss, body composition and hepatic steatosis in DIO mice; format: in vivo, mouse; details: for Blood Glucose: Day 15
Experimental: The effects on weight loss, body composition and hepatic steatosis in DIO mice for compounds of the present invention are evaluated in C57/BL6 DIO mice. […] Animals are individually housed in a temperature-controlled (24° C.) facility with a 12 hour light/dark cycle (lights on 22:00), and free access to food and water. […] Daily body weight and food intake are measured throughout the study. Absolute changes in body weight are calculated by subtracting the body weight of the same animal prior to the first injection of compound. […] On Day 15, blood glucose is measured with Accu-Chek glucometer (Roche) from tail vein blood and then animals may be sacrificed and livers removed and frozen. Liver triglycerides, determined from homogenates of livers collected at sacrifice, and plasma cholesterol are measured on a Hitachi Modular P clinical analyzer. Statistical comparisons between groups are done using one-way ANOVA followed by Dunnett's multiple comparison test. The ED50 for weight loss lowering is determined in GraphPad Prism using the non-linear fit tool.

[8] = Rat in vivo insulin secretion following intravenous glucose (IVGTT); details: s.c. 16 hour prior to glucose
Experimental: Male Wistar rats (Harlan Labs, Indianapolis, Ind.) are randomized by body weight and dosed 1.5 ml/kg s.c. 16 hour prior to glucose administration and then fasted. Doses are vehicle, 0.1, 0.3, 1, 3 and 10 nmol/kg. Animals are weighed, and then anesthetized with sodium pentobarbital (Nembutal Sodium solution; Ovation Pharmaceuticals) dosed i.p. (65 mg/kg, 30 mg/ml). A time zero blood sample is collected into EDTA tubes after which glucose is administered ([…], 5 ml/kg). Blood samples are collected at 2, 4, 6, 10, 20, and 30 minutes post glucose. Plasma glucose levels are determined using a Hitachi analyzer (Roche) and plasma insulin is measured by the MSD insulin assay (Meso Scale, Gaithersburg, Md.).

Row | Structure (SMILES) | EC50 [1] [µM] | Emax [2] [%] | Molar ratio of hGLP-1R/hGIP-R [3] | Absolute ratio of hGLP-1R/hGIP-R [3] | EC50 [4] [µM] | CL/F [5] [mL/h/kg] | Cmax [5] [µg/mL] | AUC(0-inf) [5] [µg·h/mL] | half-life [5] [h] | Tmax [5] [h] | Emax [6] [%] | % Change from starting body weight ([7]; Table 10, 10 nmol/kg) [%] | % Change from starting fat mass ([7]; Table 10, 10 nmol/kg) [%] | % Change from starting body weight ([7]; Table 10, 30 nmol/kg) [%] | % Change from starting fat mass ([7]; Table 10, 30 nmol/kg) [%] | % Change from starting body weight ([7]; Table 10, 100 nmol/kg) [%] | % Change from starting fat mass ([7]; Table 10, 100 nmol/kg) [%] | Plasma Cholesterol ([7]; Table 13, 10 nmol/kg) [mg/dL] | Blood Glucose ([7]; Table 13, 10 nmol/kg) [mg/dL] | Plasma Cholesterol ([7]; Table 13, 30 nmol/kg) [mg/dL] | also measured
1 | CC[C@H](C)[C@H](NC(=O)[C@H](CC(C)C)NC(=O)[C@H](Cc1c[nH]c2ccccc12)NC(=O)[C@H](CCC(N)=O)NC(=O)[C@@H](NC(=O)[C@H](Cc1cccc2ccccc12)NC(=O)[C@H](C)NC(=O)[C@H](CCCCNC(=O)COCCOCCNC(=O)COCCOCCNC(=O)CC[C@H](NC(=O)CCCCCCCCCCCCCCCCC(=O)O)C(=O)O)NC(=O)[C@H](CCC(N)=O)NC(=O)[C@H](C)NC(=O)[C@@H](NC(=O)[C@H](CCCCN)NC(=O)[C@H](CC(=O)O)NC(=O)[C@H](CC(C)C)NC(=O)C(C)(C)NC(=O)[C@@H](NC(=O)[C@H](CO)NC(=O)[C@H](Cc1ccc(O)cc1)NC(=O)[C@H](CC(=O)O)NC(=O)[C@H](CO)NC(=O)[C@@H](NC(=O)[C@H](Cc1ccccc1)NC(=O)[C@@H](NC(=O)CNC(=O)[C@H](CCC(=O)O)NC(=O)C(C)(C)NC(=O)[C@@H](N)Cc1ccc(O)cc1)[C@@H](C)O)[C@@H](C)O)[C@@H](C)CC)[C@@H](C)CC)C(C)C)C(=O)N[C@@H](C)C(=O)NCC(=O)NCC(=O)N1CCC[C@H]1C(=O)N[C@@H](CO)C(=O)N[C@@H](CO)C(=O)NCC(=O)N[C@@H](C)C(=O)N1CCC[C@H]1C(=O)N1CCC[C@H]1C(=O)N1CCC[C@H]1C(=O)N[C@@H](CO)C(N)=O [Example 6] (H-Y[Aib]EGTFTSDYSI[Aib]LDKIAQK([AEEA-AEEA-γGlu-C18 diacid])A[1Nal]VQWLIAGGPSSGAPPPS-NH2) | 0.0514 | 104 ± 4 | 1.83 | 8.3 | > 1 | 2.8 | 2.2 | 72.3 | 23 | 4 | 106 ± 3 | −17.54 ± 1.17 | −34.30 ± 1.20 | −19.52 ± 1.18 | −39.52 ± 3.18 | −29.36 ± 2.62 | −56.66 ± 4.96 | 167.8 ± 15.59 | 121.4 ± 2.74 | 159.8 ± 9.99 | % Change from starting body weight ([7]; Table 8, 10 nmol/kg): −15.31 ± 1.25 %; % Change from starting fat mass ([7]; Table 8, 10 nmol/kg): −24.75 ± 1.89 %; % Change from starting body weight ([7]; Table 8, 30 nmol/kg): −21.62 ± 0.92 %; % Change from starting fat mass ([7]; Table 8, 30 nmol/kg): −36.30 ± 2.47 %; % Change from starting body weight ([7]; Table 8, 100 nmol/kg): −33.95 ± 1.93 %; % Change from starting fat mass ([7]; Table 8, 100 nmol/kg): −64.64 ± 4.04 %; Plasma Cholesterol ([7]; Table 11, 10 nmol/kg): 198.4 ± 6.76 mg/dL; Plasma Triglycerides ([7]; Table 11, 10 nmol/kg): 20.78 ± 4.40 mg/dL; Blood Glucose ([7]; Table 11, 10 nmol/kg): 105.8 ± 2.10 mg/dL; Plasma Cholesterol ([7]; Table 11, 30 nmol/kg): 186.4 ± 17.04 mg/dL; Plasma Triglycerides ([7]; Table 11, 30 nmol/kg): 26.12 ± 6.85 mg/dL; Blood Glucose ([7]; Table 11, 30 nmol/kg): 100.1 ± 3.29 mg/dL; Plasma Cholesterol ([7]; Table 11, 100 nmol/kg): 151.4 ± 14.32 mg/dL; Plasma Triglycerides ([7]; Table 11, 100 nmol/kg): 17.26 ± 1.67 mg/dL; Blood Glucose ([7]; Table 11, 100 nmol/kg): 103.6 ± 3.20 mg/dL; Blood Glucose ([7]; Table 13, 30 nmol/kg): 121.9 ± 6.65 mg/dL; Plasma Cholesterol ([7]; Table 13, 100 nmol/kg): 144.2 ± 7.12 mg/dL; Blood Glucose ([7]; Table 13, 100 nmol/kg): 116.1 ± 4.67 mg/dL; % max increase of insulin AUC [8]: 289 +/− 4%; ED50 for insulin, rat IVGTT [8]: 2.58 nmol/kg
2 | CC[C@H](C)[C@H](NC(=O)[C@H](CC(C)C)NC(=O)[C@H](Cc1c[nH]c2ccccc12)NC(=O)[C@H](CCC(N)=O)NC(=O)[C@@H](NC(=O)[C@H](Cc1cccc2ccccc12)NC(=O)[C@H](C)NC(=O)[C@H](CCCCNC(=O)COCCOCCNC(=O)COCCOCCNC(=O)CC[C@H](NC(=O)CC[C@H](NC(=O)CCCCCCCCCCCCCCCCC(=O)O)C(=O)O)C(=O)O)NC(=O)[C@H](CCC(N)=O)NC(=O)[C@H](C)NC(=O)[C@@H](NC(=O)[C@H](CCCCN)NC(=O)[C@H](CC(=O)O)NC(=O)[C@H](CC(C)C)NC(=O)C(C)(C)NC(=O)[C@@H](NC(=O)[C@H](CO)NC(=O)[C@H](Cc1ccc(O)cc1)NC(=O)[C@H](CC(=O)O)NC(=O)[C@H](CO)NC(=O)[C@@H](NC(=O)[C@H](Cc1ccccc1)NC(=O)[C@@H](NC(=O)CNC(=O)[C@H](CCC(=O)O)NC(=O)C(C)(C)NC(=O)[C@@H](N)Cc1ccc(O)cc1)[C@@H](C)O)[C@@H](C)O)[C@@H](C)CC)[C@@H](C)CC)C(C)C)C(=O)N[C@@H](C)C(=O)NCC(=O)NCC(=O)N1CCC[C@H]1C(=O)N[C@@H](CO)C(=O)N[C@@H](CO)C(=O)NCC(=O)N[C@@H](C)C(=O)N1CCC[C@H]1C(=O)N1CCC[C@H]1C(=O)N1CCC[C@H]1C(=O)N[C@@H](CO)C(N)=O [Example 7] (H-Y[Aib]EGTFTSDYSI[Aib]LDKIAQK([AEEA-AEEA-γGlu-γGlu-C18 diacid])A[1Nal]VQWLIAGGPSSGAPPPS-NH2) | 0.0113 | 97.2 ± 3.4 | 1.68 | 7.6 | > 1 | 1.5 | 2.9 | 136 | 31 | 6 | 106 ± 3 | −15.08 ± 1.22 | −26.46 ± 2.31 | −20.70 ± 1.95 | −43.49 ± 5.47 | −24.36 ± 2.06 | −49.92 ± 3.40 | 161.8 ± 6.2 | 113.6 ± 4.16 | 153.6 ± 13.47 | Blood Glucose ([7]; Table 13, 30 nmol/kg): 114.7 ± 4.70 mg/dL; Plasma Cholesterol ([7]; Table 13, 100 nmol/kg): 145.4 ± 9.48 mg/dL; Blood Glucose ([7]; Table 13, 100 nmol/kg): 114 ± 2.36 mg/dL; % max increase of insulin AUC [8]: 278 +/− 26% and 335 +/− 35%
